From patent US20260185980A1, “METHOD OF PREVENTING AND/OR REDUCING METASTASIS OF TUMOR CELLS, PREVENTING OR REDUCING SENESCENCE, INHIBITING DIFFERENTIATION AND OF REDUCING INFLAMMATION” (Albert-Ludwigs-Universitaet, priority 2022, published 2026)
Peptide text beside a SMILES is read from it. * marks the point of attachment. Cbz = O=C(OCc1ccccc1)*; CH2F = FC*

Columns and labels:
CAD = biological target: T1, CAD (Homo sapiens, UniProt O76075); experiment: Assay A: Inhibition of the CAD-dependent DNA-damage response (DDR), γH2AX Western blot; format: cell-based; settings: HeLa229-Tir1-iCAD-mAID-GFP cells, compound 10 μM pre-incubated 1 hour, auxin 5 μM 4 hours
T1 construct: endogenous in cells; host or cells: HeLa229-Tir1-iCAD-mAID-GFP cells
T1 sequence (O76075 1-338): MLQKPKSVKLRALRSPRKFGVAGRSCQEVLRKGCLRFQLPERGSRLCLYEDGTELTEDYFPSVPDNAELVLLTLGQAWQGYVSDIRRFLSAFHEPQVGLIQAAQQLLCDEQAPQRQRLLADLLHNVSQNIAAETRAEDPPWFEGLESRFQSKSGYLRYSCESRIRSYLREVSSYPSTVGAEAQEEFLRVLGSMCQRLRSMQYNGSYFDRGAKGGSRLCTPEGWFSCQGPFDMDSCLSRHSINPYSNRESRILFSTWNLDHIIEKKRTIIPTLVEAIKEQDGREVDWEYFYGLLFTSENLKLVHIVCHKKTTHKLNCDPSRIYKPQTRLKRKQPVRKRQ
Procedure: Cells were seeded, pre-incubated with the individual compounds and treated with auxin. The DDR (a consequence of CAD-activity) was measured by Western blotting for the marker γH2AX. […] Such preferred compounds are: MB4, MB26; MB33; MB37; CBN16; CBN17; CBN40; CBN62; CBN65; CBN66; CBN68; CD9 and CD22.
FIG. 11 Confirmation of CAD-inhibition: auxin-dependent DDR. HeLa229-Tir1-iCAD-mAID-GFP cells were seeded on a 48-well plate (50,000 cells/well). 24 hours later, cells were pre-incubated (or not) with the indicated compounds (Comp, 10 μM) for 1 hour, followed by auxin treatment [5 μM] for 4 hours. Cells were lysed in Laemmli buffer and lysates were loaded onto SDS-PAGE followed by Western blotting against the indicated proteins. The DNA damage marker γH2AX was used as an indicator of CAD activity. The two left lanes of each gel are negative and positive controls (without and with auxin but without compound; instead, DMSO was used as solvent control). Compounds are indicated at the top.

caspase-activated CAD = biological target: T2, caspase-activated CAD (Homo sapiens, UniProt O76075); experiment: Assay B: Inhibition of caspase-activated CAD (ABT-737 plus S63845, γH2AX); format: cell-based; settings: HeLa229-CTRL3 cells, compound pre-treatment 1 hour, ABT-737 50 nM plus S63845 250 nM 2.5 hours
T2 construct: endogenous in cells; host or cells: HeLa229-CTRL3 cells (LentiCRISPRV2_puro with non-targeted gRNA)
T2 sequence (O76075 1-338): T1 sequence (O76075 1-338)
Procedure: FIG. 12 Activity of compounds against caspase-activated CAD A, HeLa229-CTRL3 cells (transduced with a LentiCRISPRV2_puro virus encoding a non-targeted gRNA) or Hela229 cells transduced with a CAD-targeted LentiCrisprV2 virus (resulting in CAD-deficient cells (CAD KO)) were seeded as described in FIG. 11 and stimulated with […] ABT-737 [50 nM] plus S63845 [250 nM] for 2.5 hours the next day. Subsequent analysis of the cells was performed as described in FIG. 11.
FIG. 12B, HeLa229-CTRL3 cells were seeded as in A and pre-treated (or not) with the indicated compounds and concentrations (Comp) for 1 hour, followed by treatment with ABT-737 plus […] for 2.5 hours. Proteins were detected as described in FIG. 11.
While in the screening we activated CAD with auxin-induced degradation of its inhibitor, CAD is physiologically activated by caspases. […] Test compounds were added 1 h previously. The activity of CAD was measured by the DDR as above (γH2AX). […] The compounds that will be used to inhibit CAD are shown in boxes. Such preferred compounds are: CBN16; CBN17; CBN62; CBN65; CBN66; CBN68; MB4; CD9; CD22 and MB26.

HeLa cells = experiment: Chromosomal missegregation (CIN) and micronuclei in cancer cells; format: cell-based, human; settings: cells incubated for one day with caspase-inhibitor
From the text: A, the various pictures of chromosomal missegregation/misalignment are shown as examples (left) and enumerated in HeLa cells (cervical carcinoma line; ctrl., control; CAD, lacking CAD; STING, lacking STING; STING is not relevant to this invention).
C, missegregation in HeLa cells with inhibition in the mitochondrial apoptosis apparatus. Symbols as in A. zVAD-fmk is a small molecule pan-caspase-inhibitor. Apaf-1 is an adapter protein of caspase-9 that is required for caspase-activation upon release of cytochrome c from mitochondria. Both Bax and Bak can directly release cytochrome c, and the presence of at least one of them is required for mitochondrial apoptosis. Bcl-XL is a mitochondrial protein that blocks the activation and activity of Bax and Bak and thereby inhibits apoptosis. […]
Metastasis is linked in the literature to chromosomal instability (CIN), most likely because DNA-ligands are generated that stimulate the cells. […] This is clear because cancer cells modified to lack CAD or components of the (CAD-activating) mitochondrial apoptosis apparatus, or where apoptosis signaling was blocked using a chemical caspase inhibitor (zVAD-fmk), all show reduced CIN (measured as chromosomal missegregation, for instance as chromatin-bridges in dividing cells) and numbers of MN (FIG. 1). […]

cancer cells = experiment: Aggressive cancer growth in vitro (migration, invasion through a basement membrane, colony formation on soft agar); format: cell-based; settings: caspase-inhibition by the pan-caspase-inhibitor
From the text: A, migratory activity of cells with or without CAD (scratch assay). Percentages of the area closed upon scratch are given. In this assay, a monolayer of cells is mechanically scratched, and the cells migrate back to fill the gap. The speed with which they migrate is a measure of their migratory capacity.
B-D invasion through a basement membrane (number of cells are given that had invaded).
E, colony formation in soft agar (number of colonies). The invasion assay uses a basement membrane in a culture dish. The cells are seeded on top of the membrane, and after a predetermined time (here: 24 h), the number of cells at the bottom of the membrane is determined. This is a measure of the capacity of the cells to invade tissue. Colony formation measures a capacity also termed ‘anchorage-independent growth’. It is a particular capacity of metastatic cells to be able to grow to colonies without support from other cells of solid support (as in a plastic dish). Individual cells are seeded in soft agar to immobilize them and to test whether the single cells can grow and form colonies, a feature of metastatic cells. The number of colonies formed is then measured.
The cell lines and conditions were described in the legend to FIG. 1. zVAD, caspase-inhibitor zVAD-fmk. Ctrl., control cells; the other cell lines are labelled according to their genetic modification (gene deletion; Bcl-XL-overexpression). […]

SMILES	Inhibition of auxin-dependent DDR (γH2AX) (CAD)	CAD-inhibitory activity against caspase-activated CAD (γH2AX) (caspase-activated CAD)	CIN (chromosomal missegregation) (HeLa cells)	numbers of MN (micronuclei) (HeLa cells)	aggressive growth in vitro (migration, invasion, colony formation) (cancer cells)
COc1cc(/C=C2/CCC/C(=C\c3ccc(O)c(OC)c3)C2=O)ccc1O [CBN40, (2E,6Z)-2,6-bis[(4-hydroxy-3-methoxyphenyl)methylidene]cyclo-hexan-1-one]	blocked the DDR	–	–	–	–
O=C1/C(=C/c2ccccn2)N2CCC1CC2 [CBN16, (2Z)-2-(pyridin-2-ylmethylidene)-1-azabicyclo[2.2.2]octan-3-one]	blocked the DDR	CAD-inhibitory activity	–	–	–
O=C(Cn1ncc(Cl)c(Cl)c1=O)Nc1ccc(N2CCCC2)cc1 [CBN62, 2-(4,5-dichloro-6-oxopyridazin-1-yl)-N-(4-pyrrolidin-1-ylphenyl)acetamide]	blocked the DDR	CAD-inhibitory activity	–	–	–
CC(=O)Nc1nc([N+](=O)[O-])n(-c2ccccc2)n1 [CBN17, N-(5-nitro-1-phenyl-1,2,4-triazol-3-yl)acetamide]	blocked the DDR	CAD-inhibitory activity	–	–	–
O=C1NC(=S)NC(=O)C1=Cc1c2ccccc2cc2ccccc12 [CBN65, 5-(anthracen-9-ylmethylidene)-2-sulfanylidene-1,3-diazinane-4,6-dione]	blocked the DDR	CAD-inhibitory activity	–	–	–
COc1cc(/C=C2\CCc3ccccc3C2=O)cc(OC)c1OC [MB33, (2E)-2-[(3,4,5-trimethoxyphenyl)methylidene]-3,4-dihydronaphthalen-1-one]	blocked the DDR	–	–	–	–
Clc1ncnc2c1C(c1ccc(Br)cc1)c1c(Cl)ncnc1O2 [CD9, 9-(4-bromophenyl)-7,11-dichloro-2-oxa-4,6,12,14-tetrazatricyclo[8.4.0.0^3,8] tetradeca-1(10),3(8),4,6,11,13-hexaene]	blocked the DDR	CAD-inhibitory activity	–	–	–
COc1cc(/C=C2\CCc3ccccc3C2=O)cc(OC)c1 [MB37, (2E)-2-[(3,5-dimethoxyphenyl)methylidene]-3,4-dihydronaphthalen-1-one]	blocked the DDR	–	–	–	–
Cc1nn(Cc2ccc(Cl)c(Cl)c2)c(C)c1NC(=O)CCCS(=O)(=O)c1nc(-c2cccs2)cc(C(F)(F)F)n1 [CBN68, N-[1-[(3,4-dichlorophenyl)methyl]-3,5-dimethylpyrazol-4-yl]-4-[4-thiophen-2-yl-6-(trifluoromethyl)pyrimidin-2-yl]sulfonylbutanamide]	blocked the DDR	CAD-inhibitory activity	–	–	–
O=c1c(Cl)c(Cl)cnn1-c1ccccc1 [CD22, 4,5-dichloro-2-phenylpyridazin-3-one]	blocked the DDR	CAD-inhibitory activity	–	–	–
Cc1ccc(Sc2ccc([N+](=O)[O-])c3nonc23)cc1 [MB26, 4-(4-methylphenyl)sulfanyl-7-nitro-2,1,3-benzoxadiazole]	blocked the DDR	CAD-inhibitory activity	–	–	–
O=[N+]([O-])c1ccc(C=Nc2cc(C(F)(F)F)ccc2N2CCOCC2)s1 [MB4, N-[2-morpholin-4-yl-5-(trifluoromethyl)phenyl]-1-(5-nitrothiophen-2-yl)methanimine]	blocked the DDR	CAD-inhibitory activity	–	–	–
COC(=O)C[C@H](NC(=O)[C@H](C)NC(=O)[C@@H](NC(=O)OCc1ccccc1)C(C)C)C(=O)CF [zVAD-fmk] (Cbz-Val-Ala-Asp(OMe)-CH2F)	–	–	reduced CIN	reduced	less aggressive growth
